Assay [1] relates to non-cancerous, immortalized human keratinocyte (HaCaT) cell line. The assay is described as follows: Cytotoxicity (inhibition of cell proliferation), HaCaT cell line. The class given is cell-based. The procedure:
(§1) The obtained compounds were tested for potential cytotoxicity. They are not cytotoxic to the non-cancerous, immortalized human keratinocyte (HaCaT) cell line and the lung cancer cell line (A549).

Assay [2] has as its system lung cancer cell line (A549). The assay is described as follows: Cytotoxicity (inhibition of cell proliferation), A549 cell line. The format is cell-based. The note with it: Homo sapiens. The method, then:
as §1

The next assay has as its target S. aureus DNA Gyrase (Staphylococcus aureus, UniProt P0A0K8+P20831). The assay is described as follows: Inhibition of bacterial DNA gyrase. The class given is biochemical. The note with it: dose of inhibitor suppressing 50% activity. From the text:
(§2) The mechanism of action was verified for the obtained compounds by inhibiting bacterial topoisomerases (Topoisomerase IV and Gyrase).

Assay [3] has as its target S. aureus Topoisomerase IV (Staphylococcus aureus, UniProt P0C1S7+P0C1U9). As to the kind of experiment: Inhibition of bacterial topoisomerase IV. The format is biochemical. The note with it: dose of inhibitor suppressing 50% activity.
Text: as §2

The mark [4] stands for this setting: concentration at which cell proliferation is inhibited by 50% in relation to the control, read-out: IC50.

Results on seven compounds are retold here after patent EP3679037B1, “NEW 5-AMINOTETRAZOLE DERIVATIVES WITH ANTIBACTERIAL AND ANTIFUNGAL ACTIVITY” (Warszawski Uniwersytet Medyczny, priority 2017, dated 2019).

Values after ≈ are worked out from the molar mass of the structure shown. Where two headings read alike, the source gives them in different places.

Sequence of S. aureus DNA Gyrase (P20831 whole entry): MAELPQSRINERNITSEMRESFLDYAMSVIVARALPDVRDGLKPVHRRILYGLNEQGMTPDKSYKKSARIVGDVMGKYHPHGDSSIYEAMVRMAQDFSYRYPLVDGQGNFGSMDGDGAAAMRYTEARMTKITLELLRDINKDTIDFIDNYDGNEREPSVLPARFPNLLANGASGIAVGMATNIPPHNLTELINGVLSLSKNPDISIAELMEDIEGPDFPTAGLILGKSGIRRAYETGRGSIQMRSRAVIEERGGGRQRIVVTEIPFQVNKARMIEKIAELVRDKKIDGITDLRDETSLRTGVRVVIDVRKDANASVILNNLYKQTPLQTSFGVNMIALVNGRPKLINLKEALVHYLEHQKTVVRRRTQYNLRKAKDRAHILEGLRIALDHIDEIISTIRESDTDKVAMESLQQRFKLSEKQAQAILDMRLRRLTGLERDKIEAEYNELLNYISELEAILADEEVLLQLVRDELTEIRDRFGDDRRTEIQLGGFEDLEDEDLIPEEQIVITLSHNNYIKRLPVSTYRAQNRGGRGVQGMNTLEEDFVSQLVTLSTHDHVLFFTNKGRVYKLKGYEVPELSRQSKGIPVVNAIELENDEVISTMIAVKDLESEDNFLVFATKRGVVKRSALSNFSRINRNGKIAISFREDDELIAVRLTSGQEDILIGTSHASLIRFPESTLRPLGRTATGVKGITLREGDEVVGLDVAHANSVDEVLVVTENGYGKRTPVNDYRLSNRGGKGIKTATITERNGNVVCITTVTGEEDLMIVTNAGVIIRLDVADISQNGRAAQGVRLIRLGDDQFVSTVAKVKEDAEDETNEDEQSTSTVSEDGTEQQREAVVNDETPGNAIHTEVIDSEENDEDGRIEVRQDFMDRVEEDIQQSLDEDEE
Sequence of S. aureus DNA Gyrase (P0A0K8 whole entry): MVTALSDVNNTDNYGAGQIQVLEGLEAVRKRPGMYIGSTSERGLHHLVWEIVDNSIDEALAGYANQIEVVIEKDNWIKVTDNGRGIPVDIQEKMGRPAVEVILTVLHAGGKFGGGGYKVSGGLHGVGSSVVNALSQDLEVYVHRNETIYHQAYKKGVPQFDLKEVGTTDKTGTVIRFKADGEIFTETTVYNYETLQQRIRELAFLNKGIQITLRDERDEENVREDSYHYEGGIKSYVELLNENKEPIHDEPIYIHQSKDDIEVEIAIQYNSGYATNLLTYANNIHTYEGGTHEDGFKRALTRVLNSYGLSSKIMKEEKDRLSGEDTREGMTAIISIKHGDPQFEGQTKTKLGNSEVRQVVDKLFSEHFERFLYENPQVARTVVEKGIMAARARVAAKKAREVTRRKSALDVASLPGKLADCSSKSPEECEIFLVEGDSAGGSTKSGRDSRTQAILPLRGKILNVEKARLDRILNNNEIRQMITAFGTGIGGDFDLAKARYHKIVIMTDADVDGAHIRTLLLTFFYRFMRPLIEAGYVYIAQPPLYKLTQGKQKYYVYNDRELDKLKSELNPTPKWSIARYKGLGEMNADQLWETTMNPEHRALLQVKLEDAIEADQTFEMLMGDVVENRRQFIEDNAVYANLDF
Sequence of S. aureus Topoisomerase IV (P0C1S7 whole entry): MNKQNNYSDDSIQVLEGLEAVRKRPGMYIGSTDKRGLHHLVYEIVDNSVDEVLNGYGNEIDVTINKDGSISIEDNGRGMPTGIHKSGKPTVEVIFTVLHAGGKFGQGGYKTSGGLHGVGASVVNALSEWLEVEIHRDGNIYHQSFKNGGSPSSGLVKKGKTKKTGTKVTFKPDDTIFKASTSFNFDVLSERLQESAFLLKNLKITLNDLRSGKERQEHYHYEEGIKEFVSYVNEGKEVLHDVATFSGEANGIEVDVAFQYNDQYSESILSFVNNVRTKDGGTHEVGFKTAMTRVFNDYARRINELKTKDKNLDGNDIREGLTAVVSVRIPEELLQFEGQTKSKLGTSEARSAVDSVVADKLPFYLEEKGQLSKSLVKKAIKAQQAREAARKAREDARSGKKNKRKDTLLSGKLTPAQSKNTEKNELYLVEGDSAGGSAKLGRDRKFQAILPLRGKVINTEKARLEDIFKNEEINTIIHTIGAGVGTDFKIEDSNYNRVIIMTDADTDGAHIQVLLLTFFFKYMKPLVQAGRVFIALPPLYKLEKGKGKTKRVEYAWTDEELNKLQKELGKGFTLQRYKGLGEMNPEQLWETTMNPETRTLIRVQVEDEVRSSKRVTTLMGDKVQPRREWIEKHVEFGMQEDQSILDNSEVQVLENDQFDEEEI
Sequence of S. aureus Topoisomerase IV (P0C1U9 whole entry): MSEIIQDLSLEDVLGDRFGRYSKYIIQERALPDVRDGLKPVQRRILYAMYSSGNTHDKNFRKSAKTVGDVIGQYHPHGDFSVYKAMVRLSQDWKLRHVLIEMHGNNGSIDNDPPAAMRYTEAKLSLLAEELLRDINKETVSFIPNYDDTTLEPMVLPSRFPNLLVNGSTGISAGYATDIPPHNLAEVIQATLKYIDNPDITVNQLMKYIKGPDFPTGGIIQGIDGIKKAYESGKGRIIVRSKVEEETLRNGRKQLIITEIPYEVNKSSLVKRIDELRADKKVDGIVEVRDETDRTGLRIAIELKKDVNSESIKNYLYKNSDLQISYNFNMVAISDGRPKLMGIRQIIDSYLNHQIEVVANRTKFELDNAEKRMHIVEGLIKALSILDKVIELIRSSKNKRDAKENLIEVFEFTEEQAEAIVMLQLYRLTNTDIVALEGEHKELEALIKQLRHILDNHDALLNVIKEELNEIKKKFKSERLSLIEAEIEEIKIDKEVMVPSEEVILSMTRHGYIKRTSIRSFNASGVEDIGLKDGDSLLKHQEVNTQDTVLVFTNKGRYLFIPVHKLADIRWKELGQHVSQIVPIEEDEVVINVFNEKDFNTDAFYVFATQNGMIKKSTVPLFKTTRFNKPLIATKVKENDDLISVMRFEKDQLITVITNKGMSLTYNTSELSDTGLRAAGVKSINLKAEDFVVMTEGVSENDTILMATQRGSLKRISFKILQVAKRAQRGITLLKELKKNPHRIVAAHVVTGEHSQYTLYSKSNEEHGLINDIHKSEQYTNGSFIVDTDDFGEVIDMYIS

Turning to `Fc1ccc(-n2nnnc2Nc2nccs2)cc1Cl` [Compound 2, N-(1-(3-chloro-4-fluorophenyl)-1H-tetrazol-5-yl)thiazol-2-amine], the IC50 in assay [1] (setting [4]) and in assay [2] (setting [4]) was 60 µM throughout.
Take `FC(F)(F)c1ccc(-n2nnnc2Nc2nccs2)cc1` [Compound 3, N-(1-(4-(trifluoromethyl)phenyl)-1H-tetrazol-5-yl)thiazole-2-amine]: the results for the IC50 in assay [1] (setting [4]) and in assay [2] (setting [4]) were 80 µM and 76 µM, respectively.
As to `Brc1ccc(-n2nnnc2Nn2cnnc2)cc1` [Compound 5, 1-(4-bromophenyl)-N-(4H-1,2.4-triazol-4-yl)-1H-tetrazole-5-amine], the values for the half-maximal inhibitory concentration (IC50) in assay [1] and in assay [2] were 65 µM and 62 µM, respectively.
On the same counts, the results for `Fc1ccc(-n2nnnc2Nn2cnnc2)cc1Cl` [Compound 8, 1-(3-chloro-4-fluorophenyl)-N-(4H-1,2.4-triazol-4-yl)-1H-tetrazole-5-amine] are 62 µM and 60 µM.
Regarding `Fc1ccc(-n2nnnc2Nn2cnnc2)cc1` [Compound 9, 1-(4-fluorophenyl)-N-(4H-1,2.4-triazol-4-yl)-1H-tetrazole-5-amine], the IC50 was found to be 84 µM in assay [1] and 80 µM in assay [2].
`Cc1ccc(-n2nnnc2NCc2ccco2)cc1Cl` [Compound 10, 1-(3-chloro-4-methylphenyl)-N-(furan-2-ylmethyl)-1H-tetrazole-5-amine]: the 50% inhibitory concentration (IC50) in assay [1] (setting [4]) was 80 µM; in assay [2] (setting [4]), 78 µM; in assay [3], 41.1 µM. The “IC50 S. aureus DNA Gyrase” value at S. aureus DNA Gyrase stood at 22.8 ± 0.4 mg/L (≈ 78.7 µM).
As to `Clc1ccc(-n2nnnc2NCc2ccco2)cc1Cl` [Compound 11, 1-(3,4-dichlorophenyl)-N-(furan-2-ylmethyl)-1H-tetrazole-5-amine], the IC50 in assay [1] (setting [4]) was 84 µM; in assay [2] (setting [4]), 80 µM; against S. aureus DNA Gyrase, 2.9 µM; in assay [3], 8.38 µM.

In general, IC50 refers to the midpoint of a concentration-inhibition curve.
